From US4336375A, “Cephalosporanic acid derivatives” (American Cyanamid Company, priority 1980, dated 1982) come the findings set out here.

Test [1] concerns Escherichia coli 311. Kind of test: In vivo systemic lethal infection of mice, Escherichia coli 311. The settings on record: CD-1 mice. Set-up: species or system Charles River CD-1 mice. From the text:
(§1) As shown in Table II these compounds show high in vivo antibacterial activity against Escherichia coli 311 and Klebsiella pneumoniae W-75-2 when administered by a single subcutaneous dose to groups of Charles River CD-1 mice, weighing about 20 g. each. The mice are infected intraperitoneally with a lethal dose of these bacteria.

Test [2] has as its system Klebsiella pneumoniae W-75-2. Kind of test: In vivo systemic lethal infection of mice, Klebsiella pneumoniae W-75-2. Also on record: species or system Charles River CD-1 mice. The settings on record: CD-1 mice.
Description: as §1

Test [3] relates to Pseudomonas aeruginosa G236. Description: In vitro MIC, agar dilution, Pseudomonas aeruginosa G236. The settings on record: Pseudomonas aeruginosa G236; agar dilution, 35° C., 18 hours, nutrient agar; read-out: Minimal Inhibitory Concentration. The class given is cell-based. The method, then:
(§2) The in vitro activity of representative compounds of the present invention are given in the following Table I in terms of minimal inhibitory concentration. The test used was the standard agar dilution test using a Steers multiple inocula replicator and incubating at 35° C. for 18 hours in conventional nutrient agar.

Test [4] concerns Pseudomonas aeruginosa PD05141. Description: In vitro MIC, agar dilution, Pseudomonas aeruginosa PD05141. The class given is cell-based. As to conditions: Pseudomonas aeruginosa PD05141; agar dilution, 35° C., 18 hours, nutrient agar; read-out: Minimal Inhibitory Concentration. The method, then: as §2
(Agar dilution tests growth on a series of plates holding different concentrations.)

Test [5] deals with Pseudomonas aeruginosa 12-4-4. Description: In vitro MIC, agar dilution, Pseudomonas aeruginosa 12-4-4. The class given is cell-based. As to conditions: Pseudomonas aeruginosa, 1244, 18 h, read-out: Minimal Inhibitory Concentration. On the procedure: as §2
Test [6] deals with Pseudomonas aeruginosa UCS 76-13. Description: In vitro MIC, agar dilution, Pseudomonas aeruginosa UCS 76-13. Type of test: cell-based. As to conditions: UCS7613; Pseudomonas aeruginosa UCS 76-13; agar dilution, 35° C., 18 hours, nutrient agar; read-out: Minimal Inhibitory Concentration. The method, then:
as §2

Test [7] relates to Klebsiella pneumoniae MA75-1. Description: In vitro MIC, agar dilution, Klebsiella pneumoniae MA75-1. As to conditions: MA751; Klebsiella pneumoniae MA75-1; agar dilution, 35° C., 18 hours, nutrient agar; read-out: Minimal Inhibitory Concentration. The class given is cell-based. The method, then:
as §2

Test [8] relates to Klebsiella pneumoniae W75-2. Kind of test: In vitro MIC, agar dilution, Klebsiella pneumoniae W75-2. The class given is cell-based. The settings on record: W752; Klebsiella pneumoniae W75-2; agar dilution, 35° C., 18 hours, nutrient agar; read-out: Minimal Inhibitory Concentration. The method, then: as §2
Test [9] concerns Klebsiella pneumoniae W75-4. Kind of test: In vitro MIC, agar dilution, Klebsiella pneumoniae W75-4. Type of test: cell-based. The settings on record: W754; Klebsiella pneumoniae W75-4; agar dilution, 35° C., 18 hours, nutrient agar; read-out: Minimal Inhibitory Concentration. On the procedure:
as §2

Test [10] has as its system Klebsiella pneumoniae UR76-1. Kind of test: In vitro MIC, agar dilution, Klebsiella pneumoniae UR76-1. The class given is cell-based. As to conditions: UR761; Klebsiella pneumoniae UR76-1; agar dilution, 35° C., 18 hours, nutrient agar; read-out: Minimal Inhibitory Concentration. The method, then: as §2
Test [11] relates to Klebsiella pneumoniae AD. Kind of test: In vitro MIC, agar dilution, Klebsiella pneumoniae AD. The class given is cell-based. As to conditions: Klebsiella pneumoniae AD; agar dilution, 35° C., 18 hours, nutrient agar; read-out: Minimal Inhibitory Concentration. The method, then:
as §2

Test [12] has as its system Enterobacter aerogenes UR76-3. Description: In vitro MIC, agar dilution, Enterobacter aerogenes UR76-3. The settings on record: Klebsiella aerogenes, UR763; Enterobacter aerogenes UR76-3; agar dilution, 35° C., 18 hours, nutrient agar; read-out: Minimal Inhibitory Concentration. Type of test: cell-based. The method, then:
as §2

Test [13] concerns Enterobacter cloacae MA75-1. Kind of test: In vitro MIC, agar dilution, Enterobacter cloacae MA75-1. Type of test: cell-based. The settings on record: MA751; Enterobacter cloacae MA75-1; agar dilution, 35° C., 18 hours, nutrient agar; read-out: Minimal Inhibitory Concentration. On the procedure:
as §2

Test [14] has as its system Enterobacter cloacae OSU75-2. Description: In vitro MIC, agar dilution, Enterobacter cloacae OSU75-2. Type of test: cell-based. The settings on record: OSU752; Enterobacter cloacae OSU75-2; agar dilution, 35° C., 18 hours, nutrient agar; read-out: Minimal Inhibitory Concentration. The method, then:
as §2

For test [15], the system named is Serratia K101. Kind of test: In vitro MIC, agar dilution, Serratia K101. The class given is cell-based. As to conditions: Serratia K101; agar dilution, 35° C., 18 hours, nutrient agar; read-out: Minimal Inhibitory Concentration. The method, then:
as §2

In test [16] the test system is Serratia marcens K77-1. Description: In vitro MIC, agar dilution, Serratia marcens K77-1. The settings on record: K771; Serratia marcens K77-1; agar dilution, 35° C., 18 hours, nutrient agar; read-out: Minimal Inhibitory Concentration. Type of test: cell-based. The method, then: as §2
In test [17] the test system is Serratia marcens QHC77-2. Kind of test: In vitro MIC, agar dilution, Serratia marcens QHC77-2. Type of test: cell-based. As to conditions: QHC772; Serratia marcens QHC77-2; agar dilution, 35° C., 18 hours, nutrient agar; read-out: Minimal Inhibitory Concentration. The method, then: as §2
In test [18] the test system is Proteus vulgaris N74-1. Description: In vitro MIC, agar dilution, Proteus vulgaris N74-1. Type of test: cell-based. The settings on record: N741, 35° C., 18 hours, nutrient agar, read-out: Minimal Inhibitory Concentration. On the procedure: as §2
Test [19] deals with Proteus morganii K72. Description: In vitro MIC, agar dilution, Proteus morganii K72. The settings on record: Morganella morganii; Proteus morganii K72; agar dilution, 35° C., 18 hours, nutrient agar; read-out: Minimal Inhibitory Concentration. Type of test: cell-based. On the procedure: as §2
Test [20] has as its system Proteus rettgeri N76-1. Description: In vitro MIC, agar dilution, Proteus rettgeri N76-1. Type of test: cell-based. The settings on record: Providencia rettgeri, N761; Proteus rettgeri N76-1; agar dilution, 35° C., 18 hours, nutrient agar; read-out: Minimal Inhibitory Concentration. The method, then: as §2
In test [21] the test system is Escherichia coli ESS22-31. Description: In vitro MIC, agar dilution, Escherichia coli ESS22-31. Type of test: cell-based. As to conditions: ESS2231; Escherichia coli ESS22-31; agar dilution, 35° C., 18 hours, nutrient agar; read-out: Minimal Inhibitory Concentration. The method, then: as §2
Test [22] concerns Escherichia coli W75-1. Description: In vitro MIC, agar dilution, Escherichia coli W75-1. As to conditions: W751, 35° C., 18 hours, nutrient agar, read-out: Minimal Inhibitory Concentration. Type of test: cell-based. The method, then: as §2
In test [23] the test system is Escherichia coli OSU75-1. Description: In vitro MIC, agar dilution, Escherichia coli OSU75-1. The settings on record: OSU751, 35° C., 18 hours, nutrient agar, read-out: Minimal Inhibitory Concentration. Type of test: cell-based. On the procedure: as §2
The subject of test [24] is Escherichia coli 311. Kind of test: In vitro MIC, agar dilution, Escherichia coli 311. The class given is cell-based. As to conditions: 35° C., 18 hours, nutrient agar, read-out: Minimal Inhibitory Concentration. On the procedure: as §2
The test system of test [25] is Staphylococcus aureus Q74-1. Description: In vitro MIC, agar dilution, Staphylococcus aureus Q74-1. Type of test: cell-based. As to conditions: Q741; Staphylococcus aureus Q74-1; agar dilution, 35° C., 18 hours, nutrient agar; read-out: Minimal Inhibitory Concentration. On the procedure:
as §2

The subject of test [26] is Staphylococcus aureus Q74-6. Kind of test: In vitro MIC, agar dilution, Staphylococcus aureus Q74-6. Type of test: cell-based. As to conditions: Q746; Staphylococcus aureus Q74-6; agar dilution, 35° C., 18 hours, nutrient agar; read-out: Minimal Inhibitory Concentration. On the procedure: as §2
Test [27] relates to Enterococcus SM77-15. Description: In vitro MIC, agar dilution, Enterococcus SM77-15. Type of test: cell-based. The settings on record: SM7715; Enterococcus SM77-15; agar dilution, 35° C., 18 hours, nutrient agar; read-out: Minimal Inhibitory Concentration. The method, then:
as §2

Setting [28] is: single subcutaneous dose 4 mg./kg.
Where [29] appears, read: single subcutaneous dose 8 mg./kg.
Setting [30] is: single subcutaneous dose 1 mg./kg.
Where [31] appears, read: single subcutaneous dose 2 mg./kg.

Each structure is given as a SMILES string. ≈ marks a conversion by molar mass, not a printed value.

With `Cn1nnnc1SCC1=C(C(=O)O)N2C(=O)[C@@H](NC(=O)[C@H](O)c3ccccc3)[C@H]2SC1` [Cefamandol], the “Alive/Total Mice Tested, 7 Days After Infection” value (“Alive/Total Mice Tested” for short) in [1] (setting [28]) is on record as 6/20; in test [1] (setting [29]), 11/20; in test [1] (single subcutaneous dose 16 mg./kg.), 20/20; in test [1] (single subcutaneous dose 32 mg./kg.), 20/20; in test [2] (single subcutaneous dose 0.5 mg./kg.), 0/20; in test [2] (setting [30]), 1/20. Moreover, the “Alive/Total Mice Tested” value in test [2] (setting [31]) is reported as 7/20; in [2] (setting [28]), 19/20; in [2] (setting [29]) it was 20/20.
Consider `CO/N=C(\C(=O)NC1C(=O)N2C(C(=O)O)=C(CSc3nnc(-n4nc(C)cc4C)n3N)CSC12)c1csc(N)n1` (stereo not drawn) [Compound II, 7-[2-(Syn-methoxyimino)-2-(2-aminothiazol-4-yl)acetamido]-3-[4-amino-5-(1-[3,5-dimethyl]pyrazolyl)-1,2,4-triazol-3-ylthiomethyl]-3-cephem-4-carboxylicacid], for which the MIC was 128 µg/mL (≈ 211 µM) in test [3]; above 128 µg/mL in test [4]; 64 µg/mL (≈ 106 µM) in test [5]; above 128 µg/mL in test [6]; at most 0.12 µg/mL in [7]; 0.25 µg/mL (≈ 0.413 µM) in [8]. Also, the MIC was 0.25 µg/mL (≈ 0.413 µM) in test [9]; 0.5 µg/mL (≈ 0.826 µM) in test [10]; at most 0.12 µg/mL in test [11]; at most 0.12 µg/mL in test [12]; 128 µg/mL (≈ 211 µM) in [13]; 2 µg/mL (≈ 3.3 µM) in test [14]. The MIC in test [15] stood at 1 µg/mL (≈ 1.65 µM); in test [16], 1 µg/mL (≈ 1.65 µM); in test [17], 2 µg/mL (≈ 3.3 µM); in test [18], 0.5 µg/mL (≈ 0.826 µM); in test [19], 0.5 µg/mL (≈ 0.826 µM); in test [20], 0.5 µg/mL (≈ 0.826 µM). Moreover, the MIC in [21] was at most 0.12 µg/mL; in [22] it was 0.25 µg/mL (≈ 0.413 µM); in [23], 0.25 µg/mL (≈ 0.413 µM); in [24] it was at most 0.12 µg/mL; in test [25], 2 µg/mL (≈ 3.3 µM); in [26], 64 µg/mL (≈ 106 µM). Moreover, in [27], the MIC was above 128 µg/mL. Besides, the “Alive/Total Mice Tested” value is 0/5 in test [1] (setting [30]), 5/5 in [1] (setting [31]), 5/5 in test [1] (setting [28]) and 5/5 in test [1] (setting [29]).
